Consider 21 molecules from ChEMBL document CHEMBL5032494, “Novel Mixed NOP/Opioid Receptor Peptide Agonists” (J Med Chem, 2021).

The target in experiment [1] is T1, Mu-type opioid receptor (Homo sapiens, UniProt P35372). Kind of experiment: Agonist activity at human mu opioid receptor expressed in CHO cells assessed as stimulation of calcium mobilization by measuring concentration relative curve at 10 uM by Fluo-4 AM dye based analysis. Type of experiment: functional, cell-based.
For experiment [2], the target named is T1, Mu-type opioid receptor. The experiment in a line: Agonist activity at human mu opioid receptor expressed in CHO cells assessed as stimulation of calcium mobilization by Fluo-4 AM dye based analysis.
Experiment [3] relates to CHO. Kind of experiment: Concentration ratio of human NOP receptor expressed in CHO cells to human mu opioid receptor expressed in CHO cells. Type of experiment: cell-based.
Experiment [4] addresses Nociceptin receptor (Homo sapiens, UniProt P41146). Kind of experiment: Agonist activity at human NOP receptor expressed in CHO cells assessed as stimulation of calcium mobilization by Fluo-4 AM dye based analysis.

The source made the active and inactive calls. The calls are words filed in the database; no cut-off is given here. Where a SMILES comes first, the peptide text is derived from it. [ ]: non-standard residue; d: D form. Phe(4-NO2) = N[C@@H](Cc1ccc([N+](=O)[O-])cc1)C(=O)O; Bip = N[C@@H](Cc1ccc(-c2ccccc2)cc1)C(=O)O; Phe(4-NH2) = Nc1ccc(C[C@H](N)C(=O)O)cc1; Phe(4-F) = N[C@@H](Cc1ccc(F)cc1)C(=O)O; 1Nal = N[C@@H](Cc1cccc2ccccc12)C(=O)O; 2Nal = N[C@@H](Cc1ccc2ccccc2c1)C(=O)O; Dmt = Cc1cc(O)cc(C)c1C[C@H](N)C(=O)O; hPhe = N[C@@H](CCc1ccccc1)C(=O)O; Phg = N[C@H](C(=O)O)c1ccccc1; Dab = NCC[C@H](N)C(=O)O; Abu = CC[C@H](N)C(=O)O; Dap = NC[C@H](N)C(=O)O

Nociceptin receptor, sequence (P41146 whole entry): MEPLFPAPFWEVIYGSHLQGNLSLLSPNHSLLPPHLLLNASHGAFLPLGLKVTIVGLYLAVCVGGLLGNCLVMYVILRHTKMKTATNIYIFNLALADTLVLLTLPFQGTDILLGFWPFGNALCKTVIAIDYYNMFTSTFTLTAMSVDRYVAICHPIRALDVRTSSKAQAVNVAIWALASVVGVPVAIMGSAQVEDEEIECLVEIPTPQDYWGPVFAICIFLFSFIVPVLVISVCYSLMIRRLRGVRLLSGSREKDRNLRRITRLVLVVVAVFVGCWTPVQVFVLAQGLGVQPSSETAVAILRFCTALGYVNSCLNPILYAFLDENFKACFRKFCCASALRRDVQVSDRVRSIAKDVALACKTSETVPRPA
T1 sequence (P35372 whole entry): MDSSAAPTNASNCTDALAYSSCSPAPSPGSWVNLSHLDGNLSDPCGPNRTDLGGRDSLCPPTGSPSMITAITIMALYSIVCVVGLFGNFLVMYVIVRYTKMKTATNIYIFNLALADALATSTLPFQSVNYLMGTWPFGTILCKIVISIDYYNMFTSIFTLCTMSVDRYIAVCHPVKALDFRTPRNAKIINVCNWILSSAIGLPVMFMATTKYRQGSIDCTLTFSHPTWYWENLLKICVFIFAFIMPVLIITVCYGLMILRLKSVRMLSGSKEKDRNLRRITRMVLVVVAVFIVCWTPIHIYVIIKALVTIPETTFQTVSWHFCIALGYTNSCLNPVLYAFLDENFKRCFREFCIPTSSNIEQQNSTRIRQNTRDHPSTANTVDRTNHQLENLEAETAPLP

For the molecule `C[C@H](NC(=O)CNC(=O)[C@H](Cc1ccc(-c2ccccc2)cc1)NC(=O)[C@H](Cc1ccccc1)NC(=O)CNC(=O)CNC(=O)[C@@H](N)Cc1ccc(O)cc1)C(=O)N[C@@H](CCCNC(=N)N)C(=O)N[C@@H](CCCCN)C(=O)N[C@@H](CO)C(=O)N[C@@H](C)C(=O)N[C@@H](CCCNC(=N)N)C(=O)N[C@@H](CCCCN)C(N)=O` (H-YGGF[Bip]GARKSARK-NH2), the pEC50 result in experiment [1] was “inactive”.

As to `C[C@H](NC(=O)CNC(=O)[C@H](CCc1ccccc1)NC(=O)[C@H](Cc1ccccc1)NC(=O)CNC(=O)CNC(=O)[C@@H](N)Cc1ccc(O)cc1)C(=O)N[C@@H](CCCNC(=N)N)C(=O)N[C@@H](CCCCN)C(=O)N[C@@H](CO)C(=O)N[C@@H](C)C(=O)N[C@@H](CCCNC(=N)N)C(=O)N[C@@H](CCCCN)C(N)=O` (H-YGGF[hPhe]GARKSARK-NH2), the pEC50 result in experiment [1] was “inactive”.

Regarding `Cc1cc(O)cc(C)c1C[C@H](N)C(=O)NCC(=O)NCC(=O)N[C@@H](Cc1ccccc1)C(=O)N[C@@H](Cc1ccccc1)C(=O)NCC(=O)N[C@@H](C)C(=O)N[C@@H](CCCNC(=N)N)C(=O)N[C@@H](CCCCN)C(=O)N[C@@H](CO)C(=O)N[C@@H](C)C(=O)N[C@@H](CCCNC(=N)N)C(=O)N[C@@H](CCCCN)C(N)=O` (H-[Dmt]GGFFGARKSARK-NH2), the figures for the EC50 in experiment [2] and in experiment [4] were 6.46 nM and 56.2 nM, respectively. Further, the Ratio in experiment [3] was determined as 8.71.

As for H-YGGFNGARKSARK-NH2, the pEC50 result in experiment [1] is “inactive”.

As to `Cc1cc(O)cc(C)c1C[C@H](N)C(=O)NCC(=O)NCC(=O)N[C@@H](Cc1ccccc1)C(=O)N[C@@H](Cc1ccc(O)cc1)C(=O)NCC(=O)N[C@@H](C)C(=O)N[C@@H](CCCNC(=N)N)C(=O)N[C@@H](CCCCN)C(=O)N[C@@H](CO)C(=O)N[C@@H](C)C(=O)N[C@@H](CCCNC(=N)N)C(=O)N[C@@H](CCCCN)C(N)=O` (H-[Dmt]GGFYGARKSARK-NH2), the concentration giving a half-maximal response (EC50) in experiment [2] was 15.5 nM; in experiment [4] it was 123 nM. The Ratio in experiment [3] turned out to be 7.94.

For `C[C@H](NC(=O)CNC(=O)[C@H](Cc1ccc(F)cc1)NC(=O)[C@H](Cc1ccccc1)NC(=O)CNC(=O)CNC(=O)[C@@H](N)Cc1ccc(O)cc1)C(=O)N[C@@H](CCCNC(=N)N)C(=O)N[C@@H](CCCCN)C(=O)N[C@@H](CO)C(=O)N[C@@H](C)C(=O)N[C@@H](CCCNC(=N)N)C(=O)N[C@@H](CCCCN)C(N)=O` (H-YGGF[Phe(4-F)]GARKSARK-NH2), in experiment [3], the Ratio amounted to 0.06. Further, the half-maximal effective concentration (EC50) in experiment [4] is 49 nM. In addition, in experiment [1], the pEC50 result was “inactive”.

In the case of `C[C@H](NC(=O)CNC(=O)[C@H](Cc1ccc2ccccc2c1)NC(=O)[C@H](Cc1ccccc1)NC(=O)CNC(=O)CNC(=O)[C@@H](N)Cc1ccc(O)cc1)C(=O)N[C@@H](CCCNC(=N)N)C(=O)N[C@@H](CCCCN)C(=O)N[C@@H](CO)C(=O)N[C@@H](C)C(=O)N[C@@H](CCCNC(=N)N)C(=O)N[C@@H](CCCCN)C(N)=O` (H-YGGF[2Nal]GARKSARK-NH2), the pEC50 result in experiment [1] was “inactive”.

Turning to `Cc1cc(O)cc(C)c1C[C@H](N)C(=O)NCC(=O)NCC(=O)N[C@@H](Cc1ccccc1)C(=O)N[C@@H](Cc1cccc2ccccc12)C(=O)NCC(=O)N[C@@H](C)C(=O)N[C@@H](CCCNC(=N)N)C(=O)N[C@@H](CCCCN)C(=O)N[C@@H](CO)C(=O)N[C@@H](C)C(=O)N[C@@H](CCCNC(=N)N)C(=O)N[C@@H](CCCCN)C(N)=O` (H-[Dmt]GGF[1Nal]GARKSARK-NH2), the EC50 is 15.8 nM in experiment [2] and 60.3 nM in experiment [4]. In addition, in experiment [3], the Ratio came to 3.8.

In the case of `C[C@H](NC(=O)CNC(=O)[C@H](Cc1ccc([N+](=O)[O-])cc1)NC(=O)[C@H](Cc1ccccc1)NC(=O)CNC(=O)CNC(=O)[C@@H](N)Cc1ccc(O)cc1)C(=O)N[C@@H](CCCNC(=N)N)C(=O)N[C@@H](CCCCN)C(=O)N[C@@H](CO)C(=O)N[C@@H](C)C(=O)N[C@@H](CCCNC(=N)N)C(=O)N[C@@H](CCCCN)C(N)=O` (H-YGGF[Phe(4-NO2)]GARKSARK-NH2), the Ratio in experiment [3] amounted to 0.06. In addition, the EC50 in experiment [4] was 49 nM. The pEC50 entry in experiment [1] is “inactive”.

For H-YGGFWGARKSARK-NH2, the pEC50 entry in experiment [1] is “inactive”.

With `C[C@H](NC(=O)CNC(=O)[C@H](Cc1ccc(N)cc1)NC(=O)[C@H](Cc1ccccc1)NC(=O)CNC(=O)CNC(=O)[C@@H](N)Cc1ccc(O)cc1)C(=O)N[C@@H](CCCNC(=N)N)C(=O)N[C@@H](CCCCN)C(=O)N[C@@H](CO)C(=O)N[C@@H](C)C(=O)N[C@@H](CCCNC(=N)N)C(=O)N[C@@H](CCCCN)C(N)=O` (H-YGGF[Phe(4-NH2)]GARKSARK-NH2), the 50% effective concentration (EC50) in experiment [2] is 372 nM; in experiment [4] it was 30.2 nM. In experiment [3], the Ratio turned out to be 0.08.

As for `C[C@H](NC(=O)CNC(=O)[C@H](CN)NC(=O)[C@H](Cc1ccccc1)NC(=O)CNC(=O)CNC(=O)[C@@H](N)Cc1ccc(O)cc1)C(=O)N[C@@H](CCCNC(=N)N)C(=O)N[C@@H](CCCCN)C(=O)N[C@@H](CO)C(=O)N[C@@H](C)C(=O)N[C@@H](CCCNC(=N)N)C(=O)N[C@@H](CCCCN)C(N)=O` (H-YGGF[Dap]GARKSARK-NH2), the pEC50 result in experiment [1] is “inactive”.

Regarding H-YGGFTGARKSARK-NH2, the Ratio in experiment [3] was less than 0.001. In experiment [1], the pEC50 entry was “inactive”.

For `COc1ccc(C[C@H](NC(=O)[C@H](Cc2ccccc2)NC(=O)CNC(=O)CNC(=O)[C@@H](N)Cc2ccc(O)cc2)C(=O)NCC(=O)N[C@@H](C)C(=O)N[C@@H](CCCNC(=N)N)C(=O)N[C@@H](CCCCN)C(=O)N[C@@H](CO)C(=O)N[C@@H](C)C(=O)N[C@@H](CCCNC(=N)N)C(=O)N[C@@H](CCCCN)C(N)=O)cc1` (H-YGGFY(Me)GARKSARK-NH2), the Ratio in experiment [3] was 0.02. For the same molecule, the EC50 in experiment [4] was 13.2 nM. Moreover, in experiment [1], the pEC50 entry is “inactive”.

`Cc1cc(O)cc(C)c1C[C@H](N)C(=O)NCC(=O)NCC(=O)N[C@@H](Cc1ccccc1)C(=O)N[C@H](C(=O)NCC(=O)N[C@@H](C)C(=O)N[C@@H](CCCNC(=N)N)C(=O)N[C@@H](CCCCN)C(=O)N[C@@H](CO)C(=O)N[C@@H](C)C(=O)N[C@@H](CCCNC(=N)N)C(=O)N[C@@H](CCCCN)C(N)=O)c1ccccc1` (H-[Dmt]GGF[Phg]GARKSARK-NH2): the EC50 is 2.88 nM in experiment [2] and 112 nM in experiment [4]. Besides, the Ratio in experiment [3] stood at 39.

As for `CC[C@H](NC(=O)[C@H](Cc1ccccc1)NC(=O)CNC(=O)CNC(=O)[C@@H](N)Cc1ccc(O)cc1)C(=O)NCC(=O)N[C@@H](C)C(=O)N[C@@H](CCCNC(=N)N)C(=O)N[C@@H](CCCCN)C(=O)N[C@@H](CO)C(=O)N[C@@H](C)C(=O)N[C@@H](CCCNC(=N)N)C(=O)N[C@@H](CCCCN)C(N)=O` (H-YGGF[Abu]GARKSARK-NH2), the pEC50 entry in experiment [1] was “inactive”.

Regarding H-YGGFVGARKSARK-NH2, the pEC50 entry in experiment [1] was “inactive”.

For the molecule H-YGGFK(Ac)GARKSARK-NH2, in experiment [1], the pEC50 result is “inactive”.

As for H-YGGFHGARKSARK-NH2, in experiment [1], the pEC50 entry was “inactive”.

Take H-YGGFKGARKSARK-NH2: the pEC50 result in experiment [1] was “inactive”.

On to `C[C@H](NC(=O)CNC(=O)[C@H](CCN)NC(=O)[C@H](Cc1ccccc1)NC(=O)CNC(=O)CNC(=O)[C@@H](N)Cc1ccc(O)cc1)C(=O)N[C@@H](CCCNC(=N)N)C(=O)N[C@@H](CCCCN)C(=O)N[C@@H](CO)C(=O)N[C@@H](C)C(=O)N[C@@H](CCCNC(=N)N)C(=O)N[C@@H](CCCCN)C(N)=O` (H-YGGF[Dab]GARKSARK-NH2), for which the pEC50 result in experiment [1] is “inactive”.
